US11180518B2, “Phenyl-heterocycle-phenyl derivatives for use in the treatment or prevention of melanoma” (MAX-PLANCK-GESELLSCHAFT ZUR FÖRDERUNG DER WISSENSCHAFTEN …, priority 2017, dated 2021)
Like-named read-outs stand apart in the source and are kept apart here.

Tests used:
WM983-B melanoma cells [1] = test: Autophagy: LC3 immunofluorescence; assay type: cell-based, human
Method: We observed a clear effect of the anle compounds on the autophagy pathway of the melanoma cells. […] Following addition of anle138c, the effect was seen later with levels of 8% at 24 hr and 78% after 96 hr.
Autophagy. WM983-B and SK-MEL-5 cells that for 24 or 48 hr were treated with anle138 or had received DMSO only were fixed for 20 min with 3.7% PFA, permeabilized, blocked, and probed with an anti-LC3B [clone 2G6] antibody (nanoTools Antikörpertechnik GmbH & Co. KG, Teningen, Germany), followed by a donkey anti-mouse Alexa-488 secondary antibody and Draq5 DNA counterstain. Confocal image stacks were obtained with a 63×NA 1.2 objective on a Zeiss LSM 510 Meta confocal microscope.

[2] = Pharmacokinetic (HPLC) analysis of resected xenograft tumors; assay type: in vivo, nude mice; settings: female, CAnN.Cg-Foxn1nu/Crl nude, mouse, tumor (WM983-B human melanoma xenograft, oral, 2 g of anle138b/kg of food pellets), food pellets with 2 g/kg for seven days, read-out: level in the tumor
Text: To determine whether the DPP compound, anle138b, when administered systemically to human MGP melanoma cells grown as subcutaneous tumors in nude mice, would reach the tumors, we performed the following study. A nude mouse, bearing high-level α-synuclein-expressing (MGP) WM983-B human melanoma xenografts on its lower right and on its lower left dorsal side, received, for seven days, food pellets mixed with anle138b. A second nude mouse, also bearing WM983-B tumors on its lower right as well as on its lower left dorsal side, received, for seven days, the same type of food pellets not containing anle138b. After the mice were sacrificed, we performed the following analyses on the post-mortem resected and thereafter, cryopreserved tumors. […]
Cryopreserved WM983-B human melanoma xenograft tissues were brought to 4° C. prior to their transfer into Precellys CKMix—2 mL tissue homogenizing tubes, and homogenization in 0.5 to 1.00 ml acetonitrile using a Precellys Evolution Super homogenizer (Bertin Instruments, Montigny-le-Bretonneux, France). […] The effluent was monitored for UV absorption at 260 nm. Samples were quantitated using peak area ratio of compounds to external standard.

[3] = tested on: WM983-B human melanoma xenografts; test: Melanoma xenograft study: H&E and LC3 staining of tumor sections; assay type: in vivo, nude mice; settings: food pellets with compound for seven days; vs control tumor
Text: To determine whether the DPP compound, anle138b, when administered systemically to human MGP melanoma cells grown as subcutaneous tumors in nude mice, would reach the tumors, we performed the following study. A nude mouse, bearing high-level α-synuclein-expressing (MGP) WM983-B human melanoma xenografts on its lower right and on its lower left dorsal side, received, for seven days, food pellets mixed with anle138b. A second nude mouse, also bearing WM983-B tumors on its lower right as well as on its lower left dorsal side, received, for seven days, the same type of food pellets not containing anle138b. After the mice were sacrificed, we performed the following analyses on the post-mortem resected and thereafter, cryopreserved tumors.
4-week-old, female nude mice (CAnN.Cg-Foxn1nu/Crl) (Charles River Laboratories, Research Models and Services, Germany GmbH, Sulzfeld, Germany) were injected subcutaneously on their lower right as well as lower left dorsal side with WM983-B (MGP) human melanoma cells (1×10^7 cells per side). When the tumors had reached a size of 2.3 to 3.0 mm in any direction, the normal food pellet diet of one of the animals was replaced with food pellets mixed with anle138b [2 g of anle138b/kg of food pellets] […]

[4] = tested on: WM983-A, WM983-B, and SK-MEL-5 melanoma cell lines; test: Apoptosis markers in treated melanoma cells; assay type: cell-based, human
Text: Although the morphological changes in the WM983-A, WM983-B, and SK-MEL-5 melanoma cell lines following addition of anle138b occurred quite rapidly, they were not indicative of the cells undergoing apoptosis. […] Differential interference contrast (DIC) images of the morphology of the anle138b-treated WM983-B, SK-MEL-5, and WM1158 melanoma cells from the same panels are shown in FIG. 9.

WM983-B melanoma cells [5] = test: Immunoblot analysis of p62/SQSTM1 expression; assay type: cell-based, human; settings: 7.5 μM
Method: For the analysis of p62/SQSTM1 protein expression, WM983-B melanoma whole-cell lysates were separated on 12% SDS-PAGE, transferred onto nitrocellulose membrane, blocked with 3% bovine serum albumin (BSA), probed with an anti-p62/SQSTM1 antibody (Cell Signaling Technology, Inc. Danvers, Mass., USA), followed by incubation with a corresponding HPR-conjugated secondary antibody and chemiluminescent substrate (EMD Millipore, Billerica, Mass., USA). Protein loading was determined by secondary probing with an anti-GAPDH antibody (Thermo Fisher Scientific Inc.).

[6] = tested on: autophagy markers, LC3 and p62/SQSTM1; settings: mouse, in vivo; cited from earlier work
Binding to FBS = assay type: in vitro ADME
WM852 melanoma cells = test: LDH cytotoxicity analysis; settings: 2, 5, 10 or 15 μM for 96 hr, replenishment at 48 hr
Method: Replicates of WM983-B as well as WM852 melanoma cells were plated at 3×10^5 cells per well in 35 mm tissue culture plates. Twenty-four hours later, the cells were rinsed three times with serum-free medium, followed by addition of increasing doses of anle138b or DMSO only. Forty-eight hours later, the cell culture medium was removed, followed by addition of equivalent doses of anle138b or DMSO only in serum-free medium. Culture medium, collected 48 hr later, was centrifuged to pellet and remove cellular debris. Using a PHERAstar FS microplate reader (BMG LABTECH GmbH, Ortenberg, Germany) and spectrophotometric absorbance measurement, the release of LDH enzyme activity into the tissue culture medium was determined with an LDH cytotoxicity assay kit (Roche Diagnostics Deutschland GmbH, Mannheim, Germany). […] Cells from the DMSO controls were trypsinized, counted, and lysed according to the manufacturer's instructions.

With `Brc1cccc(-c2cc(-c3ccc4c(c3)OCO4)n[nH]2)c1` [anle138b, 5-(3-Bromophenyl)-3-(3,4-methylenedioxyphenyl)-1H-pyrazole] the “cells with punctuate upregulation of LC3” value (WM983-B melanoma cells [1]; 24 hr, cells still attached) was “about 60%”, the “cells with punctuate upregulation of LC3” value (WM983-B melanoma cells [1]; 48 hr, cells remaining on the dish) was 95% and the concentration at 7 days ([2]; tumor from left dorsal side (218 mg)) was 110 µM. For the same compound, the concentration at 7 days ([2]; tumor from right dorsal side (57 mg)) was 125 µM, the “LC3-positive cells in tumor sections” value [3] was “more LC3-positive cells” and the “morphology of tumor cells (H&E)” value [3] was “arranged in a scattered pattern with focally pronounced disturbances in the tissue's architecture”. The “cleaved caspase 3 (apoptosis)” value [4] was “nor were they positive for cleaved caspase 3”, the p62/SQSTM1 expression (WM983-B melanoma cells [5]; 48 and 72 hr, replenishment at 48 hr, vs DMSO only) was “noticeably elevated” and the p62/SQSTM1 expression (WM983-B melanoma cells [5]; 24 hr) was “did not lead to an increase”. The “level of the autophagy markers, LC3 and p62/SQSTM1” value [6] was “did not change”, the “binding to FBS” value (Binding to FBS) was “bind strongly” and the “number of cells killed (LDH release) compared with WM983-B” value (WM852 melanoma cells) was “significantly lower”.
